Target: T1, Smoothened homolog (Homo sapiens, UniProt Q99835)
Test: Displacement of [125I]-PA cyclopamine from smoothened expressed in african green monkey COS-1 cells after 10 mins by autoradiography

T1 sequence (Q99835 whole entry): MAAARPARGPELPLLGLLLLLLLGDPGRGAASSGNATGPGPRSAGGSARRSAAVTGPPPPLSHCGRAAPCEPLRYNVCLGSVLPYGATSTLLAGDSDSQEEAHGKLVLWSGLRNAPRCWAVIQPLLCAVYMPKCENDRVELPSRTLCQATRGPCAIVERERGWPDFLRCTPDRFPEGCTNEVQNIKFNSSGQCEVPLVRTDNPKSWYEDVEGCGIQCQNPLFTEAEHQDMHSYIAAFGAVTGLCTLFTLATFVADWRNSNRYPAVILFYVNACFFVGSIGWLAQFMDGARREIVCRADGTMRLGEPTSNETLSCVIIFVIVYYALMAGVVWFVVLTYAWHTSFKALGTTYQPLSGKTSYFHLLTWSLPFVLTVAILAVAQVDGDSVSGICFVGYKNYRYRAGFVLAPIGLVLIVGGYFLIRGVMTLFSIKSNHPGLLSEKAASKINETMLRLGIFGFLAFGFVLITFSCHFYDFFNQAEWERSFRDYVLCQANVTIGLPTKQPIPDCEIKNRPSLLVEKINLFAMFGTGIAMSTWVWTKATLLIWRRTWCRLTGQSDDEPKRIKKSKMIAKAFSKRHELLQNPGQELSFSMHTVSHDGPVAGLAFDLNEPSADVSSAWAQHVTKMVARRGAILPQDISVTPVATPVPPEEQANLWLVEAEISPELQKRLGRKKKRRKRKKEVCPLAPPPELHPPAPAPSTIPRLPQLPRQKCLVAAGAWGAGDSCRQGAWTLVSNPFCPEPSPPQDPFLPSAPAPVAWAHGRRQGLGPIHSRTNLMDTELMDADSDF

| SMILES | IC50 |
| --- | --- |
| O=C(C1CCCCC1)N1CCn2c(c(O)n([C@H]3C[C@@H]3c3ccccc3)c2=O)C1 | > 1500 nM |
| CCCCn1c(O)c2n(c1=O)CCN(C(=O)Nc1ccccc1-c1ccccc1)C2 | > 2500 nM |
| COC(=O)N1CCn2c(c(O)n([C@H]3C[C@@H]3c3ccccc3)c2=O)C1 | > 1500 nM |
| CN(C)C(=O)N1CCn2c(c(O)n([C@H]3C[C@@H]3c3ccccc3)c2=O)C1 | > 2500 nM |
| O=C(Nc1ccccc1-c1ccccc1)N1CCn2c(c(O)n(Cc3ccccc3)c2=O)C1 | > 2500 nM |
| O=c1n2c(c(O)n1[C@H]1C[C@@H]1c1ccccc1)CN(CC1CCCCC1)CC2 | > 2500 nM |
| O=C(Nc1ccccc1-c1ccccc1)N1CCn2c(c(O)n(-c3cccc(-c4ccccc4)c3)c2=O)C1 | > 2500 nM |

More lines, now with the values ahead:

| IC50 | SMILES |
| --- | --- |
| > 2500 nM | O=C(Nc1ccccc1-c1ccccc1)N1CCn2c(c(O)n(-c3cccc4ccccc34)c2=O)C1 |
| > 2500 nM | O=C(NCc1ccco1)N1CCn2c(c(O)n([C@H]3C[C@@H]3c3ccccc3)c2=O)C1 |
| > 2500 nM | O=C(Nc1ccccc1-c1ccccc1)N1CCn2c(c(O)n(C3CC34CCCCC4)c2=O)C1 (stereo not given) |
| > 1500 nM | CC(=O)N1CCn2c(c(O)n([C@H]3C[C@@H]3c3ccccc3)c2=O)C1 |

Target: T1, Smoothened homolog
Test: Antagonist activity at smoothened expressed in mouse Shh Light2 cells co-expressing Gli-dependent reporter gene assessed as inhibition of Hh pathway

| IC50 | SMILES |
| --- | --- |
| > 2500 nM | O=C(Nc1ccccc1-c1ccccc1)N1CCn2c(c(O)n(C3CC34CCCCC4)c2=O)C1 (stereo not given) |

Target: not listed separately
Test: Antagonist activity at smoothened expressed in mouse Shh Light2 cells co-expressing Gli-dependent reporter gene assessed as inhibition of Hh pathway

| SMILES | IC50 |
| --- | --- |
| Cc1cc(C#N)cc(Cl)c1NC(=O)N1CCn2c(c(O)n([C@H]3C[C@@H]3c3ccccc3)c2=O)C1 | 150 nM |
| O=C(Nc1ccccc1-c1ccccc1)N1CCN2C(=O)N([C@H]3C[C@@H]3c3ccccc3)CC2C1 (stereo not given in full) | 3000 nM |
| O=C(Nc1ccccc1-c1ccccc1)N1CCn2c(c(O)n(CCc3ccccc3)c2=O)C1 | 5000 nM |
| Cc1c(Cl)cccc1NC(=O)N1CCn2c(c(O)n([C@H]3C[C@@H]3c3ccccc3)c2=O)C1 | 370 nM |
| O=C(Nc1cccnc1-c1cccc(Cl)c1)N1CCn2c(c(O)n([C@H]3C[C@@H]3c3ccccc3)c2=O)C1 | 18 nM |
| O=C(NC1CCCCC1)N1CCn2c(c(O)n([C@H]3C[C@@H]3c3ccccc3)c2=O)C1 | 600 nM |
| O=C(Nc1ccc2c(c1)OCO2)N1CCn2c(c(O)n([C@H]3C[C@@H]3c3ccccc3)c2=O)C1 | 2700 nM |
| O=C(Nc1ccc(F)c(Cl)c1Cl)N1CCn2c(c(O)n([C@H]3C[C@@H]3c3ccccc3)c2=O)C1 | 510 nM |
| Cn1cc(-c2ncccc2NC(=O)N2CCn3c(c(O)n([C@H]4C[C@@H]4c4ccccc4)c3=O)C2)cn1 | 1200 nM |
| O=C(Nc1ccccc1-c1ccccc1)N1CCn2c(c(O)n(-c3cccc(-c4ccccc4)c3)c2=O)C1 | 2500 nM |
| CC(C)c1ccccc1NC(=O)N1CCn2c(c(O)n([C@H]3C[C@@H]3c3ccccc3)c2=O)C1 | 180 nM |
| Cc1cccc(Cl)c1NC(=O)N1CCn2c(c(O)n([C@H]3C[C@@H]3c3ccccc3)c2=O)C1 | 530 nM |

Results, then the molecule that gave them:

| IC50 | SMILES |
| --- | --- |
| 780 nM | O=C(Nc1cc(Cl)cc(Cl)c1)N1CCn2c(c(O)n([C@H]3C[C@@H]3c3ccccc3)c2=O)C1 |
| 4500 nM | CC(C)(C)C(=O)N1CCn2c(c(O)n([C@H]3C[C@@H]3c3ccccc3)c2=O)C1 |
| 53 nM | CS(=O)(=O)c1cc(Cl)c(NC(=O)N2CCn3c(c(O)n([C@H]4C[C@@H]4c4ccccc4)c3=O)C2)c(Cl)c1 |
| 240 nM | O=C(Nc1cccnc1-c1ccsc1)N1CCn2c(c(O)n([C@H]3C[C@@H]3c3ccccc3)c2=O)C1 |
| 330 nM | O=C(Nc1c(Cl)cc(C(F)(F)F)cc1Cl)N1CCn2c(c(O)n([C@H]3C[C@@H]3c3ccccc3)c2=O)C1 |
| 1900 nM | CCCCN(CCCC)C(=O)N1CCn2c(c(O)n([C@H]3C[C@@H]3c3ccccc3)c2=O)C1 |
| 2200 nM | COC(=O)c1cccc(NC(=O)N2CCn3c(c(O)n([C@H]4C[C@@H]4c4ccccc4)c3=O)C2)c1Cl |
| 89 nM | O=C(Nc1ccncc1-c1ccccc1)N1CCn2c(c(O)n([C@H]3C[C@@H]3c3ccccc3)c2=O)C1 |
| 16 nM | O=C(Nc1ccnn1-c1ccccc1)N1CCn2c(c(O)n([C@H]3C[C@@H]3c3ccccc3)c2=O)C1 |
| 320 nM | O=C(Nc1ccccc1-c1ccccc1)N1CCn2c(c(O)n(C3Cc4ccccc4C3)c2=O)C1 |
| 340 nM | O=C(Nc1cccc(Cl)c1Cl)N1CCn2c(c(O)n([C@H]3C[C@@H]3c3ccccc3)c2=O)C1 |
| 1600 nM | CN(C(=O)N1CCn2c(c(O)n([C@H]3C[C@@H]3c3ccccc3)c2=O)C1)c1ccccc1-c1ccccc1 |
| 1500 nM | CCCCCCNC(=O)N1CCn2c(c(O)n([C@H]3C[C@@H]3c3ccccc3)c2=O)C1 |
| 82 nM | COc1cccc(-c2ncccc2NC(=O)N2CCn3c(c(O)n([C@H]4C[C@@H]4c4ccccc4)c3=O)C2)c1 |
| 28 nM | O=C(Nc1cccnc1-c1ccccc1)N1CCn2c(c(O)n([C@H]3C[C@@H]3c3ccccc3)c2=O)C1 |
| 4600 nM | O=C(Nc1ccccc1-c1ccccc1)c1ccc2c(c1)C(=O)N([C@H]1C[C@@H]1c1ccccc1)C2=O |

Reference: BindingDB's records for doi:10.1016/j.bmcl.2011.06.024 (Merck Research Laboratories, 2011)
